What was measured:
[1] = Mesna purity before and after sterilization using X-rays and gamma irradiation; format: physicochemical
Description: Mesna purity has been evaluated prior and after sterilization using X-rays and gamma irradiation.

[2] = tested on: human MRC-5 fibroblasts; test: Quantitative evaluation of cytotoxicity, viability assay using MU reagent; format: cell-based; conditions: for cytotoxicity (percentage of viability below 70% compared to culture medium): result in words
Description: Two experiments were performed. […] All samples were assayed in triplicate.
The cytotoxicity is defined by a viability of a test substance below 70% in compartion to culture medium.

[3] = tested on: human MRC-5 fibroblasts; test: Qualitative evaluation of cytotoxicity by microscopic examination; conditions: mean ± SD of scores
Description: In vitro cytotoxicity of Mesna in human MRC-5 fibroblasts was evaluated. Two experiments were performed. The first one was performed with two doses of Mesna (5% and 10%) and NaCl (7.06 and 3.53%) and the second one was performed with three doses of Mesna (5, 10 and 20%) and the three corresponding doses of NaCl (7.06, 3.53 and 1.76%). All samples were assayed in triplicate. Evaluation of cytotoxicity was evaluated after the following times: T15 min, T30 min, T1h, T2h, T4h, T8h and T24h.
Cells were thawed according to the standard operating procedure No. TEC-005 and subcultured according to the standard operating procedure No. TEC-001. The cell line was cultured in 75 cm^2-flasks in appropriated culture medium.
A score was assigned based on observations.

SMILES	Mesna purity ([1]; After X-ray irradiation)	Mesna purity ([1]; After gamma irradiation)	Mesna purity ([1]; Prior irradiation)	percentage of cell viability compared to culture medium (100% of viability) ([2]; 15 min (0.25 h) exposure)	percentage of cell viability compared to culture medium (100% of viability) ([2]; 30 min (0.5 h) exposure)	percentage of cell viability compared to culture medium (100% of viability) ([2]; 1 h exposure)	percentage of cell viability compared to culture medium (100% of viability) ([2]; 2 h exposure)	percentage of cell viability compared to culture medium (100% of viability) ([2]; 4 h exposure)	percentage of cell viability compared to culture medium (100% of viability) ([2]; 8 h exposure)	percentage of cell viability compared to culture medium (100% of viability) ([2]; 24 h exposure)	cytotoxicity score (microscopic examination) ([3]; 15 min exposure)	cytotoxicity score (microscopic examination) ([3]; 30 min exposure)	cytotoxicity score (microscopic examination) ([3]; 1 h exposure)	cytotoxicity score (microscopic examination) ([3]; 2 h exposure)	cytotoxicity score (microscopic examination) ([3]; 4 h exposure)	cytotoxicity score (microscopic examination) ([3]; 8 h exposure)	cytotoxicity score (microscopic examination) ([3]; 24 h exposure)	cytotoxicity (percentage of viability below 70% compared to culture medium) [2]
O=S(=O)([O-])CCS.[Na+] [Mesna powder, Sodium 2-mercaptoethanesulfonate]	89.0	88.9	89.6															
[Cl-].[Na+] [NaCl 3.53%, NaCl]				82.7%	55.4%	16.3%	12.7%	10.5%	14.4%	7.2%	0.0 ± 0.0	0.0 ± 0.0	2 ± 1.4	3.0 ± 0.0	3.0 ± 0.0	3.0 ± 0.0	4 ± 0	
[Cl-].[Na+] [NaCl 1.76%, NaCl]				88.8%	102.6%	95%	75.5%	44%	23.1%	8%	0.0	0.0	1.0	2.0	3.0	3.0	4.0	not cytotoxic after 2 hours
O=S(=O)([O-])CCS.[Na+] [Mesna 20%, Sodium 2-mercaptoethanesulfonate]				−10.2%	−1.2%	47.2%	11.8%	4.6%	12.1%	18.3%	0.0	1.0	2.0	3.0	3.0	3.0	4.0	
[Cl-].[Na+] [NaCl 7.06%, NaCl]				45.2%	25.3%	12.7%	12.3%	10.8%	14.6%	7.3%	0.0 ± 0.0	0.5 ± 0.7	2.5 ± 0.7	3.0 ± 0.0	3.0 ± 0.0	3.0 ± 0.0	4 ± 0	
O=S(=O)([O-])CCS.[Na+] [Mesna 5%, Sodium 2-mercaptoethanesulfonate]				66%	47.6%	50.4%	39.7%	12%	3.4%	1.4%	0.0 ± 0.0	1.5 ± 0.7	1.5 ± 0.7	3.0 ± 0.0	3.0 ± 0.0	3.0 ± 0.0	4 ± 0	
O=S(=O)([O-])CCS.[Na+] [Pure lyophilized Mesna, Sodium 2-mercaptoethanesulfonate]	89.3	89.1	89.4															
Oc1ccccc1 [Phenol 0.5%, Phenol]				10.9%	13.2%	11.3%	13.6%	10.4%	14.2%	8.5%	3.0 ± 0.0	3.0 ± 0.0	3.0 ± 0.0	3.0 ± 0.0	3.0 ± 0.0	3.0 ± 0.0	4.0 ± 0.0	observed at all time points
O=S(=O)([O-])CCS.[Na+] [Mesna 10%, Sodium 2-mercaptoethanesulfonate]				62.3%	54.8%	20.6%	4.1%	3.2%	3.3%	1.1%	0.0 ± 0.0	0.0 ± 0.0	1.0 ± 0.0	3.0 ± 0.0	3.0 ± 0.0	3.0 ± 0.0	4 ± 0	

From patent US20200289144A1, “DEVICE, METHOD AND FORMULATION FOR CHEMICALLY ASSISTED DISSECTION” (priority 2016, published 2020)
